Species: Rattus norvegicus
Assay: DrugMatrix - Regimen: Daily Repeat
Assay type: toxicity, organism-based, Sprague-Dawley
Parameters: regimen Daily Repeat, gender Male, age 6-8 weeks
Settings: in vivo, iv, vehicle 100 % SALINE; for ABSOLUTE BASOPHIL / ABSOLUTE EOSINOPHIL / ABSOLUTE LYMPHOCYTE / ABSOLUTE MONOCYTE / ABSOLUTE SEGMENTED NEUTROPHIL / BASOPHIL / EOSINOPHIL / ERYTHROCYTE COUNT / HEMATOCRIT / HEMOGLOBIN / LEUKOCYTE COUNT / LYMPHOCYTE / MEAN CORPUSCULAR HEMOGLOBIN / MEAN CORPUSCULAR HEMOGLOBIN CONCENTRATION / MEAN CORPUSCULAR VOLUME / MONOCYTE / NEUTROPHIL / NUCLEATED RED BLOOD CELLS / PLATELET COUNT: tissue Blood; for ALANINE AMINOTRANSFERASE / ALBUMIN / ALKALINE PHOSPHATASE / ASPARTATE AMINOTRANSFERASE / BLOOD UREA NITROGEN / CARBON DIOXIDE / CHLORIDE / CHOLESTEROL / CREATINE PHOSPHOKINASE / CREATININE / GLUCOSE / LACTATE DEHYDROGENASE / LIPASE / PHOSPHORUS / POTASSIUM / SODIUM / TOTAL BILIRUBIN / TOTAL PROTEIN / URIC ACID: tissue Plasma
[1] = 0 mg/kg, 72 h, dose level Control, time 3 day
[2] = 0 mg/kg, 120 h, dose level Control, time 5 day
[3] = 7 mg/kg, 72 h, dose level Low, time 3 day

SMILES: CC(=O)N[C@@H]1[C@H](Oc2c3cc4cc2Oc2ccc(cc2Cl)[C@@H](O[C@@H]2O[C@@H](CO)[C@@H](O)[C@H](O)[C@@H]2NC(C)=O)[C@@H]2NC(=O)[C@H](NC(=O)[C@@H]4NC(=O)[C@H]4NC(=O)[C@@H](Cc5ccc(c(Cl)c5)O3)NC(=O)[C@H](N)c3ccc(O)c(c3)Oc3cc(O)cc4c3)c3ccc(O)c(c3)-c3c(O[C@H]4O[C@H](CO)[C@@H](O)[C@@H](O)[C@@H]4O)cc(O)cc3[C@@H](C(=O)O)NC2=O)O[C@@H](CO)[C@@H](O)[C@@H]1O
- ABSOLUTE BASOPHIL [1]: 0 CELLS/uL
- ABSOLUTE EOSINOPHIL [1]: 193.5 CELLS/uL
- ABSOLUTE LYMPHOCYTE [1]: 15717.5 CELLS/uL
- ABSOLUTE MONOCYTE [1]: 389.33 CELLS/uL
- ABSOLUTE SEGMENTED NEUTROPHIL [1]: 1883 CELLS/uL
- BASOPHIL [1]: 0%
- EOSINOPHIL [1]: 1.17%
- ERYTHROCYTE COUNT [1]: 5.68 x10E6/uL
- HEMATOCRIT [1]: 35.83%
- HEMOGLOBIN [1]: 13.48 G/DL
- LEUKOCYTE COUNT [1]: 18.18 x10E3/uL
- LYMPHOCYTE [1]: 86.67%
- MEAN CORPUSCULAR HEMOGLOBIN [1]: 23.8 pg
- MEAN CORPUSCULAR HEMOGLOBIN CONCENTRATION [1]: 37.68 G/DL
- MEAN CORPUSCULAR VOLUME [1]: 63.27 fL
- MONOCYTE [1]: 2.17%
- NEUTROPHIL [1]: 10%
- NUCLEATED RED BLOOD CELLS [1]: 0 /100WBC
- PLATELET COUNT [1]: 1186.33 x10E3/uL
- ALANINE AMINOTRANSFERASE [1]: 68.5 u/L
- ALBUMIN [1]: 4.37 G/DL
- ALKALINE PHOSPHATASE [1]: 396.33 u/L
- ASPARTATE AMINOTRANSFERASE [1]: 92.5 u/L
- BLOOD UREA NITROGEN [1]: 18 mg/dL
- CARBON DIOXIDE [1]: 24.33 mmol/L
- CHLORIDE [1]: 102.4 MEQ/L
- CHOLESTEROL [1]: 67.17 mg/dL
- CREATINE PHOSPHOKINASE [1]: 378.67 u/L
- CREATININE [1]: 0.19 mg/dL
- GLUCOSE [1]: 178.33 mg/dL
- LACTATE DEHYDROGENASE [1]: 245.17 u/L
- LIPASE [1]: 9.2 u/L
- PHOSPHORUS [1]: 12.37 mg/dL
- POTASSIUM [1]: 6.48 MEQ/L
- SODIUM [1]: 143.28 MEQ/L
- TOTAL BILIRUBIN [1]: 0.23 mg/dL
- TOTAL PROTEIN [1]: 5.65 G/DL
- URIC ACID [1]: 1.6 mg/dL
- ABSOLUTE BASOPHIL [2]: 0 CELLS/uL
- ABSOLUTE EOSINOPHIL [2]: 27.5 CELLS/uL
- ABSOLUTE LYMPHOCYTE [2]: 13593.17 CELLS/uL
- ABSOLUTE MONOCYTE [2]: 576 CELLS/uL
- ABSOLUTE SEGMENTED NEUTROPHIL [2]: 1836.67 CELLS/uL
- BASOPHIL [2]: 0%
- EOSINOPHIL [2]: 0.17%
- ERYTHROCYTE COUNT [2]: 5.99 x10E6/uL
- HEMATOCRIT [2]: 37.42%
- HEMOGLOBIN [2]: 13.78 G/DL
- LEUKOCYTE COUNT [2]: 16.03 x10E3/uL
- LYMPHOCYTE [2]: 85.17%
- MEAN CORPUSCULAR HEMOGLOBIN [2]: 23.08 pg
- MEAN CORPUSCULAR HEMOGLOBIN CONCENTRATION [2]: 36.83 G/DL
- MEAN CORPUSCULAR VOLUME [2]: 62.6 fL
- MONOCYTE [2]: 3.5%
- NEUTROPHIL [2]: 11.17%
- NUCLEATED RED BLOOD CELLS [2]: 0 /100WBC
- PLATELET COUNT [2]: 1352.5 x10E3/uL
- ALANINE AMINOTRANSFERASE [2]: 49.83 u/L
- ALBUMIN [2]: 4.25 G/DL
- ALKALINE PHOSPHATASE [2]: 331.33 u/L
- ASPARTATE AMINOTRANSFERASE [2]: 86.17 u/L
- BLOOD UREA NITROGEN [2]: 19.5 mg/dL
- CARBON DIOXIDE [2]: 26.67 mmol/L
- CHLORIDE [2]: 103 MEQ/L
- CHOLESTEROL [2]: 67.5 mg/dL
- CREATINE PHOSPHOKINASE [2]: 346.17 u/L
- CREATININE [2]: 0.22 mg/dL
- GLUCOSE [2]: 170.67 mg/dL
- LACTATE DEHYDROGENASE [2]: 405.5 u/L
- LIPASE [2]: 8.83 u/L
- PHOSPHORUS [2]: 11.3 mg/dL
- POTASSIUM [2]: 6.06 MEQ/L
- SODIUM [2]: 143.4 MEQ/L
- TOTAL BILIRUBIN [2]: 0.17 mg/dL
- TOTAL PROTEIN [2]: 6.22 G/DL
- URIC ACID [2]: 1.63 mg/dL
- ABSOLUTE BASOPHIL [3]: 0 CELLS/uL
- ABSOLUTE EOSINOPHIL [3]: 340.67 CELLS/uL
- ABSOLUTE LYMPHOCYTE [3]: 16096 CELLS/uL
- ABSOLUTE MONOCYTE [3]: 460.67 CELLS/uL
- ABSOLUTE SEGMENTED NEUTROPHIL [3]: 1602.67 CELLS/uL
- BASOPHIL [3]: 0%
- EOSINOPHIL [3]: 1.67%
- ERYTHROCYTE COUNT [3]: 5.86 x10E6/uL
- HEMATOCRIT [3]: 37.6%
- HEMOGLOBIN [3]: 14.23 G/DL
- LEUKOCYTE COUNT [3]: 18.5 x10E3/uL
- LYMPHOCYTE [3]: 87%
- MEAN CORPUSCULAR HEMOGLOBIN [3]: 24.27 pg
- MEAN CORPUSCULAR HEMOGLOBIN CONCENTRATION [3]: 37.87 G/DL
- MEAN CORPUSCULAR VOLUME [3]: 64.13 fL
- MONOCYTE [3]: 2.67%
- NEUTROPHIL [3]: 8.67%
- NUCLEATED RED BLOOD CELLS [3]: 0 /100WBC
- PLATELET COUNT [3]: 1212.33 x10E3/uL
- ALANINE AMINOTRANSFERASE [3]: 48 u/L
- ALBUMIN [3]: 5.03 G/DL
- ALKALINE PHOSPHATASE [3]: 341.33 u/L
- ASPARTATE AMINOTRANSFERASE [3]: 90.67 u/L
- BLOOD UREA NITROGEN [3]: 21.33 mg/dL
- CARBON DIOXIDE [3]: 21.67 mmol/L
- CHLORIDE [3]: 98.33 MEQ/L
- CHOLESTEROL [3]: 73.33 mg/dL
- CREATINE PHOSPHOKINASE [3]: 336 u/L
- CREATININE [3]: 0.27 mg/dL
- GLUCOSE [3]: 149 mg/dL
- LACTATE DEHYDROGENASE [3]: 410.67 u/L
- LIPASE [3]: 10 u/L
- PHOSPHORUS [3]: 11.57 mg/dL
- POTASSIUM [3]: 7.21 MEQ/L
- SODIUM [3]: 141.2 MEQ/L
- TOTAL BILIRUBIN [3]: 0.27 mg/dL
- TOTAL PROTEIN [3]: 6.07 G/DL
- URIC ACID [3]: 2.23 mg/dL

Source: ChEMBL document CHEMBL3885881, “DrugMatrix”
